{
  "source": "patent US9132164B2",
  "about": "“Pharmaceutical compositions comprising angiotensin-(1-9), derivatives thereof, or a vector expressing ACE2, useful for treating cardiovascular, pulmonary, cerebral, and/or renal remodeling” (PONTIFICIA UNIVERSIDAD CATOLICA DE CHILE, priority 2008, dated 2015)",
  "key": {"[1]": {"system": "rats with myocardial infarction (left coronary artery ligation)", "test": "Effects of angiotensin-(1-9) administration on hemodynamic parameters and left ventricle weight in infarcted rats", "assay_type": "in vivo, Sprague Dawley rats", "settings": "infarcted rats (MI), osmotic mini-pump 14 days, average ± SEM", "protocol": "(§1) For studies with angiotensin-(1-9) 28 rats were randomly distributed into two groups and underwent a sham surgery (n=8) or infarction following left coronary artery ligation (n=20). The infarcted rats were randomized to receive the either the carrier, angiotensin-(1-9) (463 ng/kg of body weight for 14 days) or angiotensin-(1-9) plus A779 (463 ng of angiotensin-(1-9)/kg of body weight/min and 100 ng of A779/kg/min for 14 days) by means of osmotic mini-pumps (ALZET) implanted into the jugular under sedation with ketamine-HCl/xilazine (35/7 mg/kg intraperitoneal, respectively).\nSystolic blood pressure (SBP) was determined by using the “tail-cuff” method by investigators who were blind to the treatment group. Left ventricle function was determined by transthoracic bidimensional echocardiography using a Sonos 5000 equipped with a 5 to 12 MHz sectorial electronic ultraband S12 Philips transducer. The following echocardiographic parameters were determined: left ventricular end-systolic diameter (LVESD), left ventricular end diastolic diameter (LVEDD), left ventricular fractional shortening (LVFS), left ventricular anterior wall thickness (LVAWT), and left ventricular posterior wall thickness (LLVWT).\n(§2) The extent of left ventricular hypertrophy was calculated by the relationship among left ventricular weight (LVW), body weight (BW), mRNA relative levels of the auricular natriuretic factor (ANF), left ventricular protein content (LVP), and protein levels of β-myosinheavy chain (β-MHC) as described in (Ocaranza et al, Hypertension 48:572-8, 2006)."}, "[2]": {"system": "heart cardiomyocytes of infarcted rats", "test": "Cardiomyocyte area and perimeter, cardiac tissue morphometry of infarcted rats", "assay_type": "in vivo, Sprague Dawley rats", "settings": "two weeks via osmotic mini-pumps, p<0.01", "protocol": "as §1\nHeart mid-ventricle transverse slices (10 μm) were embedded in paraffin, stained with hematoxylin and eosin, and were examined by light microcopy (×20). The size of cardiomyocytes was determined as described by Nakamura et al (Circulation 98:794-9, 1998). Briefly, cell images visualized on a video recorded attached to the microscope were projected in a monitor and they were plotted. The area and perimeter were determined using Image J. software. […] At least 70 cells per animal were measured.\nIn animal models as described in example 1, heart was removed, histological cuts were made and a morphologic and morphometric analysis was performed on cardiac tissue according to the procedure described in example 3. […] In panel B), quantification is illustrated. **p<0.01 vs sham; ^##p<0.01 vs MI."}, "[3]": {"system": "left ventricle of infarcted rats", "test": "ANF mRNA (RT-PCR) and β-MHC protein (Western blot) in left ventricle of infarcted rats", "assay_type": "in vivo, Sprague Dawley rats", "settings": "two weeks via osmotic mini-pumps, p<0.01", "protocol": "as §1, §2\nIn animal models as described in example 1, the heart was removed and RNA was purified according to the procedure described in example 3. Later, the amount of ANF mRNA was determined by reverse transcription followed by polymerization chain reaction (RT-PCR) (see example 3). […] Panel B) illustrates RT-PCRs quantification. **p<0.01 vs sham; ^##p<0.01 vs MI. […]"}, "[4]": {"test": "Plasma angiotensin levels in infarcted rats treated with angiotensin-(1-9) with or without A779", "assay_type": "in vivo, Sprague Dawley rats", "settings": "with vs without A779, p<0.01", "protocol": "as §1\nPlasma angiotensin and bradykinin levels were determined as described by (Ocaranza et al, Hypertension 48:572-8, 2006; Ocaranza et al, Life Sci. 78:1535-42, 2005; Campbell et al, J. Mol. Cell. Cardiol. 27:1545-60, 1995). Briefly, rats were anesthetized with a combination of ketamin (125 mg/kg) and xilazin (12.5 mg/kg) administered via intraperitoneal injection. […] Plasmas were stored at −80° C. until their extraction using C18 Sep-Pak cartridges, and peptides were acetylated. Acetylated angiotensin II, angiotensin I, angiotensin-(1-7), angiotensin-(1-9), bradykinin-(1-7) and bradykinin-(1-9) were separated by high performance liquid chromatography (HPLC) and were detected by radioimmunoassay."}, "[5]": {"system": "Neonatal Sprague-Dawly rat cardiomyocytes", "test": "Hypertrophy of cultured cardiomyocytes induced by norepinephrine or IGF-1", "assay_type": "cell-based", "settings": "co-addition of 10 or 100 μM", "protocol": "Neonatal Sprague-Dawly rat cardiomyocytes were isolated as described by (Foncea et al, J. Biol. Chem. 272:19115-24, 1997). Every study is in accordance with the guide for the care and use of laboratory animals Published by “U.S. National Institutes of Health” (NIH publication No 85-23, revised 1985) and was approved by our Institutional Ethics Committee. Cell cultures were >95% pure. Cardiomyocytes were plated at 70% final density in gelatin coated plates and kept at 37° C. in a 5% CO2/95% air moisturized atmosphere for 24 h in DMEM/M199 (4:1) with 10% bovine fetal serum and 5% calf serum. […]\nCells were grown over slides and were incubated in a buffer conferring stability to the cytoskeleton (10 mM MES pH 6.0, 150 mM NaCl, 5 mM EDTA, 3% sucrose, 5 mM MgCl2) for 5 min. Then, cells were fixed and permeabilized using methanol for 10 min. Non specific binding sites were blocked for 1 h with phosphate-buffered saline (PBS) supplemented with 3% bovine serum albumin. […] Cellular staining was evaluated in a confocal microscope (Carl Zeiss Axiovert 135, LSM Microsystems). Cardiomyocyte size was determined in cells fixed with 4% paraformaldehyde for 10 min and permeabilized with methanol for 10 min. […] The size of at least 100 cells from randomly selected fields was determined using Image J (NIH) software. […]"}},
  "note": "Entries after “also recorded” stand apart in the source; their conditions may differ. No end group written: not given here.",
  "data": [
    {"sequence": "DRVYIHPFH [angiotensin-(1-9)]", "values": [
      {"measurement": "CPVI", "setting": "[1]", "value": "8.0 ± 0.3", "unit": "mg"},
      {"measurement": "FC", "setting": "[1]", "value": "without observing changes"},
      {"measurement": "LVW", "setting": "[1]", "value": "significant reduction"},
      {"measurement": "LVW/BW", "setting": "[1]", "value": "310 ± 16", "unit": "MV/100 g BW"},
      {"measurement": "SBP", "setting": "[1]", "value": "without observing changes; also recorded: does not alter"},
      {"measurement": "FC", "setting": "[1]; listed as Ang-(1-9)", "value": "259 ± 14", "unit": "beats/min"},
      {"measurement": "LVW", "setting": "[1]; listed as Ang-(1-9)", "value": "810 ± 7", "unit": "mg"},
      {"measurement": "SBP", "setting": "[1]; listed as Ang-(1-9)", "value": "112 ± 2", "unit": "mm Hg"},
      {"measurement": "cardiomyocyte cellular area increment compared with infarcted rats", "setting": "[2]", "value": "prevented cellular area increment"},
      {"measurement": "cardiomyocyte perimeter, decrease with regard to infarcted rats", "setting": "[2]", "value": 31, "unit": "%"},
      {"measurement": "ANF mRNA levels, reduction compared with infarcted rats", "setting": "[3]; RT-PCR", "value": 81, "unit": "%"},
      {"measurement": "β-MHC protein levels in left ventricle, decrease compared with infarcted rats", "setting": "[3]; Western blot", "value": 48, "unit": "%"},
      {"measurement": "plasma angiotensin-(1-9) levels", "setting": "[4]", "value": "6.8±0.8", "unit": "fmols/g"},
      {"measurement": "increments in cardiomyocyte areas induced by IGF-1", "setting": "[5]; IGF-1 10 nM", "value": "significantly prevented"},
      {"measurement": "increments in cardiomyocyte areas induced by NE", "setting": "[5]; NE 10 μM", "value": "significantly prevented"}
    ]}
  ]
}
